According to patent publication US20040156881A1, “Use of lignans in foods” (priority 2001, published 2004):

What was measured:
[1] = system: Prostaglandin E2 (=PGE2) production by the human skin fibroblasts; experiment: PGE2 levels in PMA-induced human dermal fibroblasts (anti-inflammatory cell assay); type: cell-based; details: primary human foreskin fibroblasts, FIGS. 1 and 2; for concentration dependence of anti-inflammatory effect as measured by a reduction in PGE2: increasing concentrations; for anti-inflammatory effect (PGE2 level versus control+veh+PMA): three concentration levels
Experimental: It is emphasized that the anti-inflammatory effects were determined by in vitro tests wherein the Prostaglandin E2 (=PGE2) production by the human skin fibroblasts is measured after being induced by the inflammatory modulus phorbyl myristyl acetate (PMA). A reduction of the levels of PGE2 is indicative of the anti-inflammatory effect.
Fibroblast cell assay: Primary human foreskin fibroblasts at passage 2 (P2) were seeded into 96-well plates at 35000 cells/well and maintained for 24 hours in an atmosphere of 5% carbon dioxide in Dulbeccos Modified Eagles Medium (DMEM) supplemented with 10% foetal calf serum.
The lignan-compound (SECO or MAT) was added to fresh cell media (DMEM, supplemented with 10% foetal calf serum) in 100% ethanol (final concentration 1%) in triplicate and incubated for a further 24 hours. Phorbal myristate acetate (PMA) in ethanol/cell media ([…]) was added to the cells treated with the lignan compound (SECO) and the cells incubated for a further 24 hours. PMA represents an external stressor, which induces oxidative stress and inflammatory responses in cells. The fibroblasts/media were then analysed as described below immediately, or, snap frozen in liquid nitrogen and stored at −70° C. for future analysis. The cells were then counted to ensure no effect on cell number.
Different concentrations of SECO or MAT were used in the above method to study the effect of concentration. A series of control experiments were also carried out according to the above method; Control+veh+PMA (positive control), Control+veh (negative control) and control (standard control).
Prostaglandin E2 (PGE2) assay volumes of 50 μl culture medium were taken for PGE2 assay from the above samples after gently shaking the culture plate. PGE2 levels in the medium were determined with a Biotrak PGE2 immunoassay kit (Amersham, UK). The assay is based on the competition between unlabelled PGE2 in the sample and a fixed quantity of horseradish peroxidase labelled PGE2 for a limited amount of fixed PGE2 specific antibody. Concentrations of unlabelled sample PGE2 are determined according to a standard curve, which was obtained at the same time.

[2] = system: Procollagen-I and Decorin production by the human dermal fibroblasts; experiment: Procollagen-I and decorin synthesis in human dermal fibroblasts (anti-ageing cell assay, dot blot); type: cell-based; details: primary human foreskin fibroblasts, serum free DMEM, 24 hours, different concentration levels, FIGS. 3 and 4
Experimental: It is emphasized that the anti-ageing effects were determined by in vitro tests wherein the Procollagen-I and Decorin production by the human dermal fibroblasts is measured after being induced by the anti-ageing stimulus. An increase in the levels of Procollagen-I is indicative of the anti-ageing effect.
Preparation of Dermal Fibroblast Conditioned Medium: Primary human foreskin fibroblasts at passage 2 (P2) were seeded into 12-well plates at 40000 cells/well and maintained for 24 hours in an atmosphere of 5% carbon dioxide and 4% oxygen in Dulbeccos Modified Eagles Medium (DMEM) supplemented with 10% foetal calf serum. After this time the cells were washed with serum free DMEM and then incubated in fresh serum free DMEM for a further 60 hours. The fibroblast monolayers were then washed again with serum free DMEM.
The test reagent (MAT and SECO at different concentration levels) and vehicle control (1% ethanol final concentration) were added to the cells in triplicate in a final volume of 0.4 ml/well fresh serum free DMEM and incubated for a further 24 hours. This fibroblast conditioned medium was either analysed immediately, or, snap frozen in liquid nitrogen and stored at −70° C. for future analysis. The cells were then counted and data from the dot-blot analysis subsequently standardised to cell number. […]

| SMILES | concentration dependence of anti-inflammatory effect as measured by a reduction in PGE2 [1] | anti-inflammatory effect (PGE2 level versus control+veh+PMA) [1] | anti-ageing effects (procollagen-I and decorin synthesis relative to vehicle treated control of 100 arbitrary units) [2] |
| --- | --- | --- | --- |
| COc1cc(C[C@H]2COC(=O)[C@@H]2Cc2ccc(O)c(OC)c2)ccc1O [MAT, matairesinol] | produced increasing anti-inflammatory effects | effective in producing an anti-inflammatory effect in human cells | showed increased anti-ageing effects in human cells compared to a control sample |
| COc1cc(C[C@@H](CO)[C@H](CO)Cc2ccc(O)c(OC)c2)ccc1O [SECO, secoisolariciresinol] | produced increasing anti-inflammatory effects | effective in producing an anti-inflammatory effect in human cells | showed increased anti-ageing effects in human cells compared to a control sample |
